# According to ChEMBL document CHEMBL1201862, “PubChem BioAssay data set” (2004):
#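 Compound exposure: 48 hours, 5 concentrations, 96-well plates. The concentration for 50% growth inhibition is given as GI50.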 The source made the active and inactive calls. Rule as the data show it: active = GI50 up to about 1.1 µM and inactive = higher.
# Assays:
# Test in all cases: NCI-60 cell line screen, 48 h
# U-251 = test system: U-251
# HL-60 = test system: HL-60
# OVCAR-8 = test system: OVCAR-8
# HCT-15 = test system: HCT-15
# RPMI-8226 = test system: RPMI-8226
# MDA-MB-231 = test system: MDA-MB-231
# KM12 = test system: KM12
# SK-OV-3 = test system: SK-OV-3
# T47D = test system: T47D
# HOP-62 = test system: HOP-62
# LOX IMVI = test system: LOX IMVI
# UACC-62 = test system: UACC-62
# UACC-257 = test system: UACC-257
# SF-295 = test system: SF-295
# EKVX = test system: EKVX
# SK-MEL-28 = test system: SK-MEL-28
# A549 = test system: A549
# SF-539 = test system: SF-539
# SF-268 = test system: SF-268
# SK-MEL-2 = test system: SK-MEL-2
Structure (SMILES),GI50 (U-251),GI50 (HL-60),GI50 (OVCAR-8),GI50 (HCT-15) [µM],GI50 (RPMI-8226),GI50 (MDA-MB-231),GI50 (KM12),GI50 (SK-OV-3),GI50 (T47D),GI50 (HOP-62),GI50 (LOX IMVI),GI50 (UACC-62),GI50 (UACC-257),GI50 (SF-295),GI50 (EKVX),GI50 (SK-MEL-28),GI50 (A549),GI50 (SF-539),GI50 (SF-268),GI50 (SK-MEL-2)
COC(=O)C(Cc1ccccc1)NP(=O)(O)OCC1OC(n2cc(I)c(=O)[nH]c2=O)CC1O (stereo not given),> 100 µM (inactive),> 100 µM (inactive),> 100 µM (inactive),> 100,> 100 µM (inactive),> 100 µM (inactive),> 100 µM (inactive),> 100 µM (inactive),> 100 µM (inactive),> 100 µM (inactive),> 100 µM (inactive),> 100 µM (inactive),> 100 µM (inactive),> 100 µM (inactive),> 100 µM (inactive),> 100 µM (inactive),> 100 µM (inactive),> 100 µM (inactive),> 100 µM (inactive),
[O-]/[N+](=N\c1ccccc1CO)c1ccccc1CO,> 100 µM (inactive),> 100 µM (inactive),> 100 µM (inactive),> 100,> 100 µM (inactive),> 100 µM (inactive),> 100 µM (inactive),> 100 µM (inactive),> 100 µM (inactive),,> 100 µM (inactive),> 100 µM (inactive),> 100 µM (inactive),,> 100 µM (inactive),> 100 µM (inactive),> 100 µM (inactive),> 100 µM (inactive),> 100 µM (inactive),> 100 µM (inactive)
Cc1ccccc1NC(=O)Cc1csc(N/N=C2\NC(=O)/C(=C/c3cccc([N+](=O)[O-])c3)S2)n1,21.5 µM (inactive),17.8 µM (inactive),31.8 µM (inactive),15.8,,21.7 µM (inactive),16.6 µM (inactive),53.1 µM (inactive),17.1 µM (inactive),22.9 µM (inactive),30.3 µM (inactive),,20.3 µM (inactive),18.1 µM (inactive),13.5 µM (inactive),19.1 µM (inactive),16.7 µM (inactive),17.1 µM (inactive),,26.4 µM (inactive)
COc1cccc2c1C(=O)c1c(O)c3c(c(O)c1C2=O)C[C@H](O)C[C@@H]3OC1CC(N)C(O)C(C)O1 (stereo not given in full),,,1.05 µM (active),11.5,1.22 µM (inactive),1.78 µM (inactive),0.811 µM (active),2.13 µM (inactive),1.21 µM (inactive),1.49 µM (inactive),0.229 µM (active),0.255 µM (active),1.58 µM (inactive),1.44 µM (inactive),5.21 µM (inactive),1.7 µM (inactive),1.98 µM (inactive),1.33 µM (inactive),1.57 µM (inactive),2.02 µM (inactive)
O=C(NCCNCCNC(=O)C(F)(F)F)C(F)(F)F,> 100 µM (inactive),> 100 µM (inactive),> 100 µM (inactive),> 100,> 100 µM (inactive),> 100 µM (inactive),> 100 µM (inactive),> 100 µM (inactive),> 100 µM (inactive),> 100 µM (inactive),> 100 µM (inactive),> 100 µM (inactive),> 100 µM (inactive),> 100 µM (inactive),> 100 µM (inactive),> 100 µM (inactive),> 100 µM (inactive),,> 100 µM (inactive),> 100 µM (inactive)
O=C1NC(=O)[C@@H](OCC2CCCCC2)[C@@H]2OCC3OC(C(O)C3O)C12 (stereo not given in full),,> 100 µM (inactive),> 100 µM (inactive),> 100,,> 100 µM (inactive),> 100 µM (inactive),> 100 µM (inactive),> 100 µM (inactive),> 100 µM (inactive),> 100 µM (inactive),> 100 µM (inactive),> 100 µM (inactive),> 100 µM (inactive),> 100 µM (inactive),> 100 µM (inactive),> 100 µM (inactive),> 100 µM (inactive),> 100 µM (inactive),> 100 µM (inactive)
COc1ccc(S(=O)(=O)Nc2ccc(-c3csc(N4C(=O)/C(=C/C=C\c5ccccc5)N=C4c4ccccc4)n3)cc2)cc1Cl,28.8 µM (inactive),14 µM (inactive),23.2 µM (inactive),21.8,,22.9 µM (inactive),29 µM (inactive),65.3 µM (inactive),19.5 µM (inactive),31.3 µM (inactive),19.8 µM (inactive),19.4 µM (inactive),33 µM (inactive),38.5 µM (inactive),,59.7 µM (inactive),28.9 µM (inactive),36.6 µM (inactive),19.1 µM (inactive),22.6 µM (inactive)
Nc1nnc(-c2ccco2)c(-c2ccco2)n1,> 100 µM (inactive),> 100 µM (inactive),> 100 µM (inactive),> 100,> 100 µM (inactive),> 100 µM (inactive),> 100 µM (inactive),> 100 µM (inactive),> 100 µM (inactive),,,> 100 µM (inactive),> 100 µM (inactive),> 100 µM (inactive),> 100 µM (inactive),> 100 µM (inactive),> 100 µM (inactive),> 100 µM (inactive),> 100 µM (inactive),> 100 µM (inactive)
